Assay results as given in paper PMC5405074, “Receptor-Mediated Melanoma Targeting with Radiolabeled α-Melanocyte-Stimulating Hormone: Relevance of the Net Charge of the Ligand” (Frontiers in Endocrinology, 2017).
Read-outs that look alike come from different tables or passages of the source. Non-standard residues stand in square brackets, D forms with d. Residues, ends and D or L forms follow the SMILES beside them. *: point of attachment. DOTA = O=C(O)CN1CCN(CC(=O)O)CCN(CC(=O)*)CCN(CC(=O)O)CC1; Nle = CCCC[C@H](N)C(=O)O

What was measured:
MC1R (B16-F1 cells) = target: T1, MC1R (B16-F1 cells) (Mus musculus, UniProt Q01727); assay: Competition binding assay with [^125I]-NDP-MSH, mouse B16-F1 melanoma cells; settings: B16-F1 cells
T1 construct: endogenous in cells; host or cells: mouse B16-F1 melanoma cells
Experimental: (§1) Triplicates of 100-µL volumes of B16-F1 or HBL cell suspensions adjusted to 4 × 10^6/mL were incubated in 96-well U-bottom microplates (Falcon 3077). The binding medium consisted of MEM with Earle’s salts, 0.2% BSA, and 0.3 mM 1,10-phenanthroline. This binding medium was called mouse binding medium (MBM). Triplicates of competitor peptide solution (50 µL) yielding final concentrations ranging from 1 × 10^−6 to 1 × 10^−12 M were added. [^125I]NDP-MSH (50,000 cpm) in 50 µL was finally added to each well. The plates were incubated at 15°C for 3 h for B16-F1 cells and at 37°C for 2 h for HBL cells. The incubation was stopped by covering the plates with ice for 10 min. A cell harvester was used to collect cell-bound radioactivity on filters (Packard Unifilter-96 GF/B). The collected radioactivity was counted on a TopCount scintillation counter (Packard) after addition of 50 µL Microscint-20 scintillation cocktail (Perkin Elmer). The IC50 values were calculated with the Prism 6 software (GraphPad Software Inc., San Diego CA, USA).
(§2) The binding affinity of the peptides to MC1R was assessed by competition binding assays using [^125I]-NDP-MSH as radioligand and both murine B16-F1 and human HBL cells.

MC1R (HBL cells) = target: T2, MC1R (HBL cells) (Homo sapiens, UniProt Q01726); assay: Competition binding assay with [^125I]-NDP-MSH, human HBL melanoma cells; settings: HBL cells
T2 construct: endogenous in cells; host or cells: human HBL melanoma cell line
Experimental: as §1, §2

B16-F1 cells = assay: Internalization by cultured B16-F1 cells; assay type: cell-based, mouse; settings: 37°C, 0.5, 2 and 3.5 h, 74 kBq radioligand
Experimental: B16-F1 cells were seeded in six-well plates and incubated overnight in MEM at 37°C. For the internalization experiments, MEM was replaced by 1 mL MBM (see above) as internalization buffer. After a 1-h incubation at 37°C, 74 kBq of radioligand (^111In-labeled peptides) was added, and the plates were incubated for different time periods. Non-specific internalization was determined by addition of 50 µL of a 1 µM α-MSH solution to the incubation mixture. After the desired incubation times, the cells were extensively washed with MBM kept at 37°C to remove excess radioligand. Incubation in 2 mL ice-cold acid buffer (acetate-buffered Hank’s balanced salt solution, pH 5) for 10 min allowed dissociation of surface-bound ligand. After collection of the acid buffer fraction, the cells were rinsed once with cold MBM, and the washings were pooled with the acid buffer fraction. The cells were washed again with MBM kept at 37°C, lysed in a 1% Triton X-100 solution, and finally transferred to tubes for quantification. The radioactivity of all collected fractions was measured in a γ-counter. A counting plate underwent the same treatment as the plate incubated for the longest time, but its cells were detached with 0.02% EDTA in PBS instead of being lysed with the Triton X-100 solution. Cells from three wells were collected, counted, and thus allowed for normalization of the results obtained. Results were expressed as percent of the added dose per million cells.
Figure 3 Determination of internalization of [^111In] DOTA-NAP-D-Asp-D-Asp (A) and [^111In]DOTA-Phospho-MSH2-9 (B) by cultured B16-F1 cells exposed to the peptides at 37°C for 0.5, 2, and 3.5 h. Surface-bound radioligand was released by an acid buffer wash, and internalized radioligand was determined by lysing cells with detergent. Results are expressed in percent of the added dose per million cells.

[1] = Biodistribution of ^111In-labeled peptides in B16-F1 melanoma-bearing mice; assay type: in vivo, mouse (B6D2F1); settings: female, iv, total radioactivity, ^111In-labeled peptide, 185 kBq i.v., mean ± SEM of three experiments, n = 5 animals each
Method in brief: (§3)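 B16-F1 cells (about 5 × 10^5) grown s.c. in female B6D2F1 mice; 7 days later 185 kBq ^111In-labeled peptide injected i.v. Tissues collected at 4, 24 and 48 h and γ-counted, uptake given as %ID/g (mean ± SEM); non-specific uptake from co-injection of 50 µg α-MSH. Urine metabolites analysed by RP-HPLC/γ-detection.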

[2] = system: B16-F1 tumor-bearing mice; assay: as above; assay type: in vivo, mouse (B6D2F1); settings: in vivo
Method in brief: as §3

[3] = B6D2F1 (C57BL/6 × DBA/2F1 hybrids), mouse, blood, read-out: Blood uptake
[4] = B6D2F1 (C57BL/6 × DBA/2F1 hybrids), mouse, muscle, read-out: Muscle uptake
[5] = B6D2F1 (C57BL/6 × DBA/2F1 hybrids), mouse, skin, read-out: Skin uptake
[6] = B6D2F1 (C57BL/6 × DBA/2F1 hybrids), mouse, tumor, read-out: Tumor uptake
[7] = B6D2F1, mouse, bone, read-out: Bone uptake
[8] = B6D2F1, mouse, heart, read-out: Heart uptake
[9] = B6D2F1, mouse, kidney, read-out: Kidney uptake
[10] = B6D2F1, mouse, liver, read-out: Liver uptake
[11] = B6D2F1, mouse, lung, read-out: Lung uptake
[12] = B6D2F1, mouse, pancreas, read-out: Pancreas uptake
[13] = B6D2F1, mouse, small intestines, read-out: Small intestines uptake
[14] = B6D2F1, mouse, spleen, read-out: Spleen uptake
[15] = B6D2F1, mouse, stomach, read-out: Stomach uptake

T1 sequence (Q01727 whole entry): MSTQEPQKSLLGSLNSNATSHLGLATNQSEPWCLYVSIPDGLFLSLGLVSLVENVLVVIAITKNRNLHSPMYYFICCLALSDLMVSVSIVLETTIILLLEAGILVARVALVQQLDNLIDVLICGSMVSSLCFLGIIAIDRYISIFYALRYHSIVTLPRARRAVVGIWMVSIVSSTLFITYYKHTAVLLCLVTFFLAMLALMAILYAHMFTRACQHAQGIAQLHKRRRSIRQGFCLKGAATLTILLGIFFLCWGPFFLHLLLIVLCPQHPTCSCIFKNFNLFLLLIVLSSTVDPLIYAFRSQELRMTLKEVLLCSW
T2 sequence (Q01726 whole entry): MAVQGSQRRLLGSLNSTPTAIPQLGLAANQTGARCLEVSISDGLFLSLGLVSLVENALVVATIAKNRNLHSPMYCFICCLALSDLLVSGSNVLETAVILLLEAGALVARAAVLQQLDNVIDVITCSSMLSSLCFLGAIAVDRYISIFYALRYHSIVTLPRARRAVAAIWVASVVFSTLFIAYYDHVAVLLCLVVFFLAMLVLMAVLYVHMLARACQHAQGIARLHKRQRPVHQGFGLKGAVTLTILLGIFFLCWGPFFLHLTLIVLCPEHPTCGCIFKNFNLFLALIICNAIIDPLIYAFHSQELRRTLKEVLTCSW

In the case of `CCCC[C@H](NC(C)=O)C(=O)N[C@@H](CC(=O)O)C(=O)N[C@@H](Cc1c[nH]cn1)C(=O)N[C@H](Cc1ccccc1)C(=O)N[C@@H](CCCNC(=N)N)C(=O)N[C@@H](Cc1c[nH]c2ccccc12)C(=O)NCC(=O)N[C@@H](CCCCNC(=O)CN1CCN(CC(=O)O)CCN(CC(=O)O)CCN(CC(=O)O)CC1)C(=O)N[C@H](CC(=O)O)C(=O)N[C@H](CC(=O)O)C(=O)O` [DOTA-NAP-D-Asp-D-Asp, Ac-Nle-Asp-His-D-Phe-Arg-Trp-Gly-Lys(DOTA)-D-Asp-D-Asp-OH] (Ac-[Nle]DH[dF]RWGK(DOTA)[dD][dD]-OH), the “Reduction of MC1R affinity compared to DOTA-NAP-amide” value (MC1R (B16-F1 cells)) is reported as ~ 10 fold, the “Reduction of MC1R affinity compared to DOTA-NAP-amide” value (MC1R (HBL cells)) is reported as ~ 10 fold and the “Internalization profile (in words)” value (B16-F1 cells) is reported as “rapid internalization”. The tissue uptake at 4 h [1, 3] was 0.01 %ID/g, the tissue uptake at 24 h [1, 3] was 0.01 %ID/g and the tissue uptake at 48 h [1, 3] was 0.01 %ID/g. For the same molecule, the tissue uptake at 48 h ([1]; B6D2F1 (C57BL/6 × DBA/2F1 hybrids), mouse, bone, read-out: Bone uptake) was 0.07 ± 0.01 %ID/g, the tissue uptake at 4 h [1, 4] was 0.02 %ID/g and the tissue uptake at 24 h [1, 4] was 0.02 %ID/g. For the same molecule, the tissue uptake at 48 h [1, 4] was 0.03 %ID/g, the tissue uptake at 4 h [1, 5] was 0.06 ± 0.01 %ID/g and the tissue uptake at 24 h [1, 5] was 0.06 %ID/g. The tissue uptake at 48 h [1, 5] was 0.04 %ID/g, the tissue uptake at 24 h [1, 6] was 0.63 ± 0.03 %ID/g and the tissue uptake at 48 h [1, 6] was 0.23 ± 0.02 %ID/g. The tissue uptake at 4 h [1, 7] was 0.07 ± 0.01 %ID/g, the tissue uptake at 24 h [1, 7] was 0.06 ± 0.01 %ID/g and the tissue uptake at 4 h [1, 8] was 0.03 %ID/g. The tissue uptake at 24 h [1, 8] was 0.03 %ID/g, the tissue uptake at 48 h [1, 8] was 0.03 %ID/g and the tissue uptake at 24 h [1, 9] was 4.09 ± 0.16 %ID/g. It also gave a tissue uptake at 48 h [1, 9] of 2.02 ± 0.08 %ID/g, a tissue uptake at 4 h [1, 10] of 0.1 %ID/g and a tissue uptake at 24 h [1, 10] of 0.09 %ID/g. The tissue uptake at 48 h [1, 10] was 0.07 %ID/g, the tissue uptake at 4 h [1, 11] was 0.06 %ID/g and the tissue uptake at 24 h [1, 11] was 0.04 %ID/g. The tissue uptake at 48 h [1, 11] was 0.03 %ID/g, the tissue uptake at 4 h [1, 12] was 0.03 %ID/g and the tissue uptake at 24 h [1, 12] was 0.02 %ID/g. For the same molecule, the tissue uptake at 48 h [1, 12] was 0.03 %ID/g, the tissue uptake at 4 h [1, 13] was 0.05 ± 0.01 %ID/g and the tissue uptake at 24 h [1, 13] was 0.04 ± 0.01 %ID/g. It also gave a tissue uptake at 48 h [1, 13] of 0.03 %ID/g, a tissue uptake at 4 h [1, 14] of 0.07 %ID/g and a tissue uptake at 24 h [1, 14] of 0.07 %ID/g. It also gave a tissue uptake at 48 h [1, 14] of 0.07 %ID/g, a tissue uptake at 4 h [1, 15] of 0.11 %ID/g and a tissue uptake at 24 h [1, 15] of 0.03 %ID/g. The tissue uptake at 48 h [1, 15] was 0.02 %ID/g, the “Kidney uptake/retention compared with reference (in words)” value [2] was “markedly increased” and the “Tumor uptake lower than that of reference” value ([2]; melanoma tumors) was ~ 4 fold.
